Results reported in PMC5570892, “Indole-based perenosins as highly potent HCl transporters and potential anti-cancer agents” (Scientific Reports, 2017).
Like-named read-outs stand apart in the source and are kept apart here.

Columns and labels:
[1] = HPTS assay with TBAOH (electrogenic H+ or OH- transport); assay type: biochemical; conditions: sodium gluconate vesicles, pH 7.0; CCCP at 0.1 mol%; perenosins at loading giving 100% in NMDG-Cl assay
Protocol: S10.8. General Procedure for the HPTS Assay
Unilamellar vesicles were prepared using previously reported literature procedures16. A lipid film of POPC (1-palmitoyl-2-oleoyl-sn-glycero-3-phosphocholine) was prepared from a chloroform solution under reduced pressure and then dried under vacuum for 4 or more hours. The lipid film was rehydrated by vortexing with an internal solution containing HPTS (1 mM). The lipid suspension was then subjected to 9 freeze-thaw cycles and left to rest at room temperature for 30 minutes. After this, the suspension was extruded 25 times through a 200 nm polycarbonate membrane resulting in unilamellar vesicles of a mean diameter of 200 nm. The un-encapsulated HPTS was removed by size exclusion chromatography using a sephadex G-25 column and an external solution eluent that does not contain HPTS. […]
After 200 s, detergent (50 μL of Triton X-100 (11 w%) in H2O:DMSO (7:1 v/v)) was added to lyse the vesicles and after 5 mins a final reading was taken. […]
The fractional fluorescence intensity (If) was calculated using: […]
where Rt is the fluorescence ratio at time t, R0 is the fluorescence ratio at time 0 and Rd is the fluorescence ratio at the end of the experiment, after the addition of detergent. […]

[2] = test system: MDA-MB-231 cells; assay: MTT cell viability assay; assay type: cell-based; conditions: Homo sapiens, error from three repeats in brackets
Protocol: Herein, we carried out further in vitro studies at the University of Barcelona for the full library of perenosins. Single dose screening for cell viability using the methylthiazoletetrazolium (MTT) colorimetric assay over five different cell lines (cancer cells MCF-7, MDA-MB-231, A549 and SW620, and non-cancerous human cells MCF-10A) was conducted.
While perenosin 5, with pentyl substituent at R3, has similar cell viability effects as 1d, bis-indole perenosin 7 with pentyl substituent at R1 has a moderate degree of late onset by a factor of 7.
S11.1 Cell Lines and Culture Conditions
The human cell lines were obtained from the American Type Culture Collection (ATCC, Manassas VA). Breast adenocarcinoma MDA-MB-231 and MCF-7 cells were maintained in DMEM:F12 media (1:1; Biological Industries, Beit Haemek, Israel), and 10 µg/ml insulin and 50 µM sodium pyruvate from Sigma-Aldrich Chemical Co. (St. Louis, MO) were added to MCF-7 cells. Lung adenocarcinoma A549 and colorectal adenocarcinoma SW620 cells were cultured in DMEM media. All were supplemented with 10% foetal bovine serum (FBS; Invitrogen-Life Technologies, Carlsbad, CA) and 100 U/mL penicillin, 100 µg/mL streptomycin and 2 mM L-glutamine, all from Biological Industries.
Mammary epithelial MCF-10A cells were maintained in DMEM:F12 media supplemented with 5% horse serum (Life Technologies), 20 ng/ml EGF, 0.5 µg/ml Hydrocortisone, 100 ng/ml Cholera toxin, 10 µg/ml insulin all from Sigma-Aldrich and 100 U/ml penicillin, 100 µg/ml streptomycin, and 2 mM L- glutamine (Biological Industries). Cells were grown at 37 °C under a 5% CO2 atmosphere.
S11.2 Cell Viability Assays
Cell viability was evaluated using the methylthiazoletetrazolium (MTT) colorimetric assay. Cancer cells (MCF-7, MDA-MB-231, A549 and SW620) or non-cancerous human cells MCF-10A cells were harvested (10^4 cells/well) in 96-well plates in a final volume of 100 µl and allowed to grow overnight.
After 24 h, vehicle solution (DMSO) or experimental compounds were added at 10 µM (single point experiment) or at different ranging concentrations (0.8-100 µM) to the assay plate and were incubated for 24 or 72 h. Then, 10 µl of MTT (5 mg/ml; Sigma-Aldrich) were added and the plates were incubated for 4 h at 37°C. 100 µl of DMSO (Sigma-Aldrich) were added to dissolve crystals and the reading was taken spectrophotometrically at 570 nm using a multi-well plate reader (Multiskan FC, Thermo Scientific, Waltham, MA, USA). Cell viability and inhibitory concentration (IC) values were obtained using GraphPad Prism v5.0 (Graphpad Software, San Diego, CA, USA). All data are shown as the mean value ± standard deviation (S.D.) of three independent experiments.

[3] = MDA-MB-231, 24 h exposure, read-out: IC50 (24 h)
[4] = MDA-MB-231, 72 h exposure, read-out: IC50 (72 h)

Compound | H+ or OH- transport (TBAOH base pulse) [1] | IC50 [2, 3] | IC50 [2, 4]
N#CC(C#N)=NNc1cccc(Cl)c1 [CCCP] | 100% | – | –
Cc1cc(C)c(/C=N/c2cccc3cc[nH]c23)[nH]1 [Perenosin 1a] | – | 38.3 µM | 24.4 µM
Cc1cc(C)c(/C=N/c2cc(C(F)(F)F)cc3cc[nH]c23)[nH]1 [Perenosin 1b] | – | 32.2 µM | 22.1 µM
Cc1cc(/N=C/c2[nH]c(C)cc2C)c2[nH]ccc2c1 [Perenosin 1c] | – | 34.4 µM | 20.4 µM
COc1cc(/N=C/c2[nH]c(C)cc2C)c2[nH]ccc2c1 [Perenosin 1e] | – | 38.4 µM | 32.7 µM
